In ChEMBL document CHEMBL5512665, “A CARM1 Inhibitor Potently Suppresses Breast Cancer Both In Vitro and In Vivo” (J Med Chem, 2024):
Activity calls are given as the source filed them. No cut-off for these calls is given here.

Key:
[1] = system: MDA-MB-231; experiment: Antitumor activity against human MDA-MB-231 cells xenografted in BALB/C mouse assessed as inhibition of tumor growth at 50 mg/kg,ip administrated daily for 11 days; format: functional, organism-based; conditions: time 11.0 day
[2] = system: MCF7; experiment: Antitumor activity against human MCF7 cells xenografted in BALB/C mouse assessed as upregulation of IFNalpha gene expression at 25 mg/kg,ip administrated every other day for 29 days by RT-qPCR analysis; format: functional, organism-based; conditions: time 29.0 day
[3] = system: MCF7; experiment: Synergistic antiproliferative activity against human MCF7 cells assessed as downregulation of GREB1 gene expression at 2.5 uM incubated for 6 hrs in presence of fulvestrant by RT-qPCR analysis; format: functional, cell-based
[4] = system: MCF7; experiment: Antiproliferative activity against human MCF7 cells with siRNA mediated CARM1 knockdown assessed as reduction in cell growth at 5 uM incubated for 7 days by celltiter 96 aqueous one solution cell proliferation assay; format: functional, cell-based; conditions: time 7.0 day
[5] = Toxicity in BALB/C mouse implanted with mouse 4T1 cells assessed as change in body weight at 25 mg/kg,ip administrated daily for 14 days; format: organism-based; conditions: in vivo, 336 h, time 14 day
[6] = system: MDA-MB-231; experiment: Antiproliferative activity against human MDA-MB-231 cells assessed as reduction in cell growth incubated for 7 days by celltiter 96 aqueous one solution cell proliferation assay; conditions: MDA-MB-231, 168 h
[7] = Toxicity in BALB/C mouse xenografted with human MDA-MB-231 cells assessed as change in spleen morphology at 25 mg/kg,ip administrated daily for 11 days; format: organism-based; conditions: in vivo, 264 h, time 11 day
[8] = system: MCF7; experiment: Antitumor activity against human MCF7 cells xenografted in BALB/C mouse assessed as upregulation of ISG15 gene expression at 25 mg/kg,ip administrated every other day for 29 days by RT-qPCR analysis; format: functional, organism-based; conditions: time 29.0 day
[9] = system: MCF7; experiment: Antitumor activity against human MCF7 cells xenografted in BALB/C mouse assessed as downregulation of TFF1 gene expression at 50 mg/kg,ip administrated every other day for 29 days by RT-qPCR analysis; format: functional, organism-based; conditions: time 29.0 day
[10] = system: 4T1; experiment: Antitumor activity against mouse 4T1 cells implanted in BALB/C mouse assessed as downregulation of FOXC1 gene expression at 25 mg/kg,ip administrated daily for 14 days by RT-qPCR analysis; format: functional, organism-based; conditions: time 14.0 day
[11] = system: MCF7; experiment: Antitumor activity against human MCF7 cells xenografted in BALB/C mouse assessed as upregulation of DDX58 gene expression at 25 mg/kg,ip administrated every other day for 29 days by RT-qPCR analysis; format: functional, organism-based; conditions: time 29.0 day
[12] = Toxicity in BALB/C mouse implanted with mouse 4T1 cells assessed as change in body weight at 50 mg/kg,ip administrated daily for 14 days; format: organism-based; conditions: in vivo, 336 h, time 14 day
[13] = system: 4T1; experiment: Antitumor activity against mouse 4T1 cells implanted in BALB/C mouse assessed as upregulation of DDX58 gene expression at 50 mg/kg,ip administrated daily for 14 days by RT-qPCR analysis; format: functional, organism-based; conditions: time 14.0 day
[14] = system: MDA-MB-468; experiment: Antiproliferative activity against human MDA-MB-468 cells assessed as reduction in cell growth incubated for 7 days by celltiter 96 aqueous one solution cell proliferation assay; conditions: MDA-MB-468, 168 h
[15] = system: MCF7; experiment: Synergistic antiproliferative activity against human MCF7 cells assessed as downregulation of TFF1 gene expression at 2.5 uM incubated for 6 hrs in presence of tamoxifen by RT-qPCR analysis; format: functional, cell-based
[16] = system: MDA-MB-231; experiment: Antitumor activity against human MDA-MB-231 cells xenografted in BALB/C mouse assessed as reduction of tumor weight at 50 mg/kg,ip administrated daily for 11 days; format: functional, organism-based; conditions: time 11.0 day
[17] = system: MCF7; experiment: Antitumor activity against human MCF7 cells xenografted in BALB/C mouse assessed as downregulation of TFF1 gene expression at 25 mg/kg,ip administrated every other day for 29 days by RT-qPCR analysis; format: functional, organism-based; conditions: time 29.0 day
[18] = Toxicity in BALB/C mouse implanted with mouse 4T1 cells assessed as change in lung morphology at 50 mg/kg,ip administrated daily for 14 days; format: organism-based; conditions: in vivo, 336 h, time 14 day
[19] = system: MCF7; experiment: Antiproliferative activity against human MCF7 cells assessed as reduction in cell growth incubated for 7 days by celltiter 96 aqueous one solution cell proliferation assay; conditions: MCF7, 168 h
[20] = system: MCF7; experiment: Synergistic antiproliferative activity against human MCF7 cells assessed as downregulation of FOXC1 gene expression at 2.5 uM incubated for 6 hrs in presence of tamoxifen by RT-qPCR analysis; format: functional, cell-based
[21] = system: MCF7; experiment: Synergistic antiproliferative activity against human MCF7 cells assessed as inhibition of colony formation at 2.5 uM incubated for 10 days in presence of tamoxifen by crystal violet staining based analysis; format: functional, cell-based; conditions: time 10.0 day
[22] = Toxicity in BALB/C mouse xenografted with human MDA-MB-231 cells assessed as change in liver morphology at 50 mg/kg,ip administrated daily for 11 days; format: organism-based; conditions: in vivo, 264 h, time 11 day
[23] = system: MCF7; experiment: Antitumor activity against human MCF7 cells xenografted in BALB/C mouse assessed as reduction of tumor weight at 25 mg/kg,ip administrated every other day for 29 days; format: functional, organism-based; conditions: time 29.0 day
[24] = system: 4T1; experiment: Potentiation of etoposide induced antitumor activity against mouse 4T1 cells implanted in BALB/C mouse assessed as upregulation of CD8A expression at 25 mg/kg,ip administrated daily for 12 days in presence of 8 mg/kg etoposide administration by immunohistochemical staining based analysis; format: functional, organism-based; conditions: time 12.0 day
[25] = Toxicity in BALB/C mouse xenografted with human MCF7 cells assessed as change in lung morphology at 25 mg/kg,ip administrated every other day for 29 days; format: organism-based; conditions: in vivo, 696 h, time 29 day
[26] = system: MCF7; experiment: Potentiation of etoposide induced antiproliferative activity against human MCF7 cells assessed as upregulation of IFIT1 gene expression at 2.5 uM in presence of etoposide by RT-qPCR analysis; format: functional, cell-based
[27] = Toxicity in BALB/C mouse implanted with mouse 4T1 cells assessed as change in spleen morphology at 50 mg/kg,ip administrated daily for 14 days; format: organism-based; conditions: in vivo, 336 h, time 14 day
[28] = system: 4T1; experiment: Antitumor activity against mouse 4T1 cells implanted in BALB/C mouse assessed as downregulation of GREB1 gene expression at 25 mg/kg,ip administrated daily for 14 days by RT-qPCR analysis; format: functional, organism-based; conditions: time 14.0 day
[29] = system: 4T1; experiment: Antitumor activity against mouse 4T1 cells implanted in BALB/C mouse assessed as downregulation of PGR gene expression at 50 mg/kg,ip administrated daily for 14 days by RT-qPCR analysis; format: functional, organism-based; conditions: time 14.0 day
[30] = system: MCF7; experiment: Antitumor activity against human MCF7 cells xenografted in BALB/C mouse assessed as inhibition of tumor growth at 25 mg/kg,ip administrated every other day for 29 days; format: functional, organism-based; conditions: time 29.0 day
[31] = Toxicity in BALB/C mouse xenografted with human MCF7 cells assessed as change in heart morphology at 25 mg/kg,ip administrated every other day for 29 days; format: organism-based; conditions: in vivo, 696 h, time 29 day
[32] = system: T47D; experiment: Induction of cell cycle arrest in human T47D cells at 2.5 to 10 uM incubated overnight by propidium iodide staining based flow cytometry; format: functional; conditions: dose 2.5-10 µM
[33] = Toxicity in BALB/C mouse xenografted with human MDA-MB-231 cells assessed as change in liver morphology at 25 mg/kg,ip administrated daily for 11 days; format: organism-based; conditions: in vivo, 264 h, time 11 day
[34] = Toxicity in BALB/C mouse xenografted with human MDA-MB-231 cells assessed as change in body weight at 25 mg/kg,ip administrated daily for 11 days; format: organism-based; conditions: in vivo, 264 h, time 11 day

For `Cc1ccc(-c2nc(N3CCN(CCN(C)C)CC3)ncc2-c2ccoc2)cc1.Cl.Cl`, the Activity [1] was “Active”, the Activity [2] was “Active” and the Activity [3] was “Active”. For the same molecule, the Activity [4] was “inactive”, the Activity [5] was “Non-Toxic” and the EC50 [6] was 3750 nM. The Activity [7] was “Non-Toxic”, the Activity [8] was “Active” and the Activity [9] was “Active”. For the same molecule, the Activity [10] was “Active”, the Activity [11] was “Active” and the Activity [12] was “Non-Toxic”. For the same molecule, the Activity [13] was “Active”, the EC50 [14] was 2020 nM and the Activity [15] was “Active”. The Activity [16] was “Active”, the Activity [17] was “Active” and the Activity [18] was “Non-Toxic”. For the same molecule, the EC50 [19] was 1800 nM, the Activity [20] was “Active” and the Activity [21] was “Active”. For the same molecule, the Activity [22] was “Non-Toxic”, the Activity [23] was “Active” and the Activity [24] was “Active”. The Activity [25] was “Non-Toxic”, the Activity [26] was “Active” and the Activity [27] was “Non-Toxic”. For the same molecule, the Activity [28] was “Active”, the Activity [29] was “Active” and the Activity [30] was “Active”. The Activity [31] was “Non-Toxic”, the Activity [32] was “Active” and the Activity [33] was “Non-Toxic”. The Activity [34] was “Non-Toxic”.
